Results from patent publication US12144795B2, “Cannabidiol compositions having modified cannabinoid profiles” (priority 2018, dated 2024).

Assay: Stability studies of CBD prepared via Protocol 3 (crude, pure, 2x recrystallized; 5° C., 25° C./60% RH, 40° C./75% RH)
Assay type: physicochemical

C=C(C)[C@@H]1CCC(C)=C[C@H]1c1c(O)cc(CCCCC)cc1O [Crude CBD]
Appearance (25° C./60% RH, 0 month): White
Assay by HPLC (25° C./60% RH, 0 month): 99.9%
Each unspecified impurity: RRT~1.540 (25° C./60% RH, 0 month): 0.06%
Each unspecified impurity: RRT~1.690 (25° C./60% RH, 0 month): 0.11%
Related substances by HPLC (low level): Δ9-Tetrahydrocannabinol (25° C./60% RH, 0 month): 26 ppm
Related substances by HPLC: 4-Monobromo-CBD (25° C./60% RH, 0 month): <0.03% (0.02%)
Related substances by HPLC: Olivetol (25° C./60% RH, 0 month): <0.03% (ND)
Related substances by HPLC: Sum of impurities, ≥0.05% (25° C./60% RH, 0 month): 0.17%
Related substances by HPLC: Δ9-Tetrahydrocannabinol (25° C./60% RH, 0 month): <0.02% (ND)
Appearance (25° C./60% RH, 1 month): Off-White
Assay by HPLC (25° C./60% RH, 1 month): 98.2%
Each unspecified impurity: RRT~1.927 (25° C./60% RH, 1 month): 0.07%
Each unspecified impurity: RRT~2.146 (25° C./60% RH, 1 month): 0.12%
Related substances by HPLC (low level): Δ8-Tetrahydrocannabinol (25° C./60% RH, 1 month): 6 ppm
Related substances by HPLC (low level): Δ9-Tetrahydrocannabinol (25° C./60% RH, 1 month): 29 ppm
Related substances by HPLC: 4-Monobromo-CBD (25° C./60% RH, 1 month): <0.03% (0.02)
Related substances by HPLC: Olivetol (25° C./60% RH, 1 month): <0.03% (ND)
Related substances by HPLC: Sum of impurities, ≥0.05% (25° C./60% RH, 1 month): 0.19%
Related substances by HPLC: Δ8-Tetrahydrocannabinol (25° C./60% RH, 1 month): <0.02% (ND)
Related substances by HPLC: Δ9-Tetrahydrocannabinol (25° C./60% RH, 1 month): <0.02% (ND)
Appearance (25° C./60% RH, 2 months): Off-White
Assay by HPLC (25° C./60% RH, 2 months): 99.5%
Each unspecified impurity: RRT~1.931 (25° C./60% RH, 2 months): 0.06%
Each unspecified impurity: RRT~2.151 (25° C./60% RH, 2 months): 0.09%
Related substances by HPLC (low level): Δ8-Tetrahydrocannabinol (25° C./60% RH, 2 months): 5 ppm
Related substances by HPLC (low level): Δ9-Tetrahydrocannabinol (25° C./60% RH, 2 months): 27 ppm
Related substances by HPLC: 4-Monobromo-CBD (25° C./60% RH, 2 months): <0.03% (0.02%)
Related substances by HPLC: Olivetol (25° C./60% RH, 2 months): <0.03% (0.02%)
Related substances by HPLC: Sum of impurities, ≥0.05% (25° C./60% RH, 2 months): 0.15%
Related substances by HPLC: Δ8-Tetrahydrocannabinol (25° C./60% RH, 2 months): <0.02% (ND)
Related substances by HPLC: Δ9-Tetrahydrocannabinol (25° C./60% RH, 2 months): <0.02% (ND)
Appearance (25° C./60% RH, 3 months): Off-white
Assay by HPLC (25° C./60% RH, 3 months): 98.1%
Each unspecified impurity: RRT~1.983 (25° C./60% RH, 3 months): 0.05%
Each unspecified impurity: RRT~2.260 (25° C./60% RH, 3 months): 0.10%
Related substances by HPLC (low level): Δ8-Tetrahydrocannabinol (25° C./60% RH, 3 months): 8 ppm
Related substances by HPLC (low level): Δ9-Tetrahydrocannabinol (25° C./60% RH, 3 months): 13 ppm
Related substances by HPLC: 4-Monobromo-CBD (25° C./60% RH, 3 months): <0.03% (0.02%)
Related substances by HPLC: Olivetol (25° C./60% RH, 3 months): <0.03% (ND)
Related substances by HPLC: Sum of impurities, ≥0.05% (25° C./60% RH, 3 months): 0.15%
Related substances by HPLC: Δ8-Tetrahydrocannabinol (25° C./60% RH, 3 months): <0.02% (ND)
Related substances by HPLC: Δ9-Tetrahydrocannabinol (25° C./60% RH, 3 months): <0.02% (ND)
Appearance (40° C./75% RH, 0 month): White
Assay by HPLC (40° C./75% RH, 0 month): 99.9%
Each unspecified impurity: RRT~1.540 (40° C./75% RH, 0 month): 0.06%
Each unspecified impurity: RRT~1.690 (40° C./75% RH, 0 month): 0.11%
Related substances by HPLC (low level): Δ9-Tetrahydrocannabinol (40° C./75% RH, 0 month): 26 ppm
Related substances by HPLC: 4-Monobromo-CBD (40° C./75% RH, 0 month): <0.03% (0.02%)
Related substances by HPLC: Olivetol (40° C./75% RH, 0 month): <0.03% (ND)
Related substances by HPLC: Sum of impurities, ≥0.05% (40° C./75% RH, 0 month): 0.17%
Related substances by HPLC: Δ9-Tetrahydrocannabinol (40° C./75% RH, 0 month): <0.02% (ND)
Appearance (40° C./75% RH, 1 month): Yellow Powder
Assay by HPLC (40° C./75% RH, 1 month): 98.7%
Each unspecified impurity: RRT~1.928 (40° C./75% RH, 1 month): 0.06%
Each unspecified impurity: RRT~2.150 (40° C./75% RH, 1 month): 0.11%
Related substances by HPLC (low level): Δ8-Tetrahydrocannabinol (40° C./75% RH, 1 month): 7 ppm
Related substances by HPLC (low level): Δ9-Tetrahydrocannabinol (40° C./75% RH, 1 month): 28 ppm
Related substances by HPLC: 4-Monobromo-CBD (40° C./75% RH, 1 month): <0.03% (0.02)
Related substances by HPLC: Olivetol (40° C./75% RH, 1 month): <0.03% (ND)
Related substances by HPLC: Sum of impurities, ≥0.05% (40° C./75% RH, 1 month): 0.17%
Related substances by HPLC: Δ8-Tetrahydrocannabinol (40° C./75% RH, 1 month): <0.02% (ND)
Related substances by HPLC: Δ9-Tetrahydrocannabinol (40° C./75% RH, 1 month): <0.02% (ND)
Appearance (40° C./75% RH, 2 months): Off-White
Assay by HPLC (40° C./75% RH, 2 months): 99.6%
Each unspecified impurity: RRT~1.931 (40° C./75% RH, 2 months): 0.06%
Each unspecified impurity: RRT~2.151 (40° C./75% RH, 2 months): 0.07%
Related substances by HPLC (low level): Δ8-Tetrahydrocannabinol (40° C./75% RH, 2 months): 4 ppm
Related substances by HPLC (low level): Δ9-Tetrahydrocannabinol (40° C./75% RH, 2 months): 27 ppm
Related substances by HPLC: 4-Monobromo-CBD (40° C./75% RH, 2 months): <0.03% (0.02)
Related substances by HPLC: Olivetol (40° C./75% RH, 2 months): <0.03% (ND)
Related substances by HPLC: Sum of impurities, ≥0.05% (40° C./75% RH, 2 months): 0.13%
Related substances by HPLC: Δ8-Tetrahydrocannabinol (40° C./75% RH, 2 months): <0.02% (ND)
Related substances by HPLC: Δ9-Tetrahydrocannabinol (40° C./75% RH, 2 months): <0.02% (ND)
Appearance (40° C./75% RH, 3 months): Off-white
Assay by HPLC (40° C./75% RH, 3 months): 99.0%
Each unspecified impurity: RRT~1.982 (40° C./75% RH, 3 months): 0.05%
Each unspecified impurity: RRT~2.258 (40° C./75% RH, 3 months): 0.09%
Related substances by HPLC (low level): Δ8-Tetrahydrocannabinol (40° C./75% RH, 3 months): 8 ppm
Related substances by HPLC (low level): Δ9-Tetrahydrocannabinol (40° C./75% RH, 3 months): 17 ppm
Related substances by HPLC: 4-Monobromo-CBD (40° C./75% RH, 3 months): <0.03% (0.02)
Related substances by HPLC: Olivetol (40° C./75% RH, 3 months): <0.03% (ND)
Related substances by HPLC: Sum of impurities, ≥0.05% (40° C./75% RH, 3 months): 0.14%
Related substances by HPLC: Δ8-Tetrahydrocannabinol (40° C./75% RH, 3 months): <0.02% (ND)
Related substances by HPLC: Δ9-Tetrahydrocannabinol (40° C./75% RH, 3 months): <0.02% (ND)
Appearance (40° C./75% RH, 5 months): Beige/off-
Assay by HPLC (40° C./75% RH, 5 months): 98.6%
Each unspecified impurity: Methadienol deg-1 (40° C./75% RH, 5 months): deg-1: 0.03%
Each unspecified impurity: RRT~0.956 (40° C./75% RH, 5 months): 0.04%
Each unspecified impurity: RRT~1.918 (40° C./75% RH, 5 months): 0.05%
Related substances by HPLC (low level): Δ8-Tetrahydrocannabinol (40° C./75% RH, 5 months): 36 ppm
Related substances by HPLC (low level): Δ9-Tetrahydrocannabinol (40° C./75% RH, 5 months): 24 ppm
Related substances by HPLC: 4-Monobromo-CBD (40° C./75% RH, 5 months): <0.03% (ND)
Related substances by HPLC: Olivetol (40° C./75% RH, 5 months): <0.03% (ND)
Related substances by HPLC: Sum of impurities, ≥0.05% (40° C./75% RH, 5 months): 0.05%
Related substances by HPLC: Δ8-Tetrahydrocannabinol (40° C./75% RH, 5 months): <0.02% (ND)
Related substances by HPLC: Δ9-Tetrahydrocannabinol (40° C./75% RH, 5 months): <0.02% (ND)
